# Tested on: HUVECs (human umbilical vein endothelial cells)
# Experiment: Inhibitory effect of fumagillol derivative on HUVEC cell growth (colorimetry)
# Format: cell-based
# Conditions: Homo sapiens, HUVEC
# Description: Using the HUVECs (human umbilical vein endothelial), the effect of the fumagillol derivative of the present invention on cell growth was evaluated.
# The HUVECs were added to M199 medium supplemented with 20% FBS (fetal bovine serum), 100 U/ml penicillin, 100 μg/ml streptomycin, 1.5 g/L sodium bicarbonate, 0.1 mg/ml endothelial cell growth supplement (Sigma) and 0.1 mg/ml heparin (Sigma), after which the cells were incubated in an incubator at 37° C. under 5% CO2. Cells were subcultured a maximum of 8 times before being discarded.
# In order to evaluate inhibitory activity of the fumagillin derivative on growth of HUVECs, the inventive compound was dissolved in DMSO and its concentration was adjusted from 10 mM to 1 mM. Cells were aliquotted to 96 well plates at a density of 2×10^3 cells per well and incubated for about 12–24 hours to be properly attached to the plate. Thereafter, the medium was replaced with new medium. The cells were treated with the compound obtained from each of the above examples at various concentration ranges of from 10 μM to […], and cultured for 2–3 days, followed by removing 100 μl of the medium from each well.
# Colorimetry was performed to determine the extent of cell growth. The cells on each plate was added with 20 μl of aqueous one solution and then incubated at 37° C. under 5% CO2 for 2 hours. Using a 96-well plate reader, absorption was measured at 490 nm.
# As such, a conventional TNP-470 having angiogenesis inhibitory effect was used as a control.
row,Structure (SMILES),IC50 [ng/mL]
1,"CO[C@@H]1[C@H](OC(=O)CNCCBr)CC[C@]2(CO2)[C@H]1[C@@]1(C)OC1CC=C(C)C (some centres unmarked) [Ex. 61, 6-O-(2-bromoethylamino)acetyl fumagillol]",2800

# Same assay, conditions: Homo sapiens, HUVEC, HUVEC growth, cultured 2–3 days with compound, absorption at 490 nm; read-out: IC50
row,Structure (SMILES),IC50 [ng/mL]
1,"C#CC(C)(C)NCC(=O)O[C@@H]1CC[C@]2(CO2)[C@@H]([C@@]2(C)OC2CC=C(C)C)[C@@H]1OC (some centres unmarked) [Ex. 59, 6-O-(1,1-dimethyl-2-propinylamino)acetyl fumagillol]",174
2,"COc1c(C)cc(NCC(=O)O[C@@H]2CC[C@]3(CO3)[C@@H]([C@@]3(C)OC3CC=C(C)C)[C@@H]2OC)cc1C (some centres unmarked) [Ex. 15, 6-O-(3,5-dimethyl-4-methoxyaniline)acetyl fumagillol]",0.06
3,"CCC(C)NCC(=O)O[C@@H]1CC[C@]2(CO2)[C@@H]([C@@]2(C)OC2CC=C(C)C)[C@@H]1OC (some centres unmarked) [Ex. 45, 6-O-(sec-butylamino)acetyl fumagillol]",370
4,"COc1cc(NCC(=O)O[C@@H]2CC[C@]3(CO3)[C@@H]([C@@]3(C)OC3CC=C(C)C)[C@@H]2OC)c([N+](=O)[O-])cc1OC (some centres unmarked) [Ex. 5, 6-O-(3,4-dimethoxy-6-nitroaniline)acetyl fumagillol]",142
5,"CO[C@@H]1[C@H](OC(=O)CNc2ccc(OCCOC(C)=O)cc2)CC[C@]2(CO2)[C@H]1[C@@]1(C)OC1CC=C(C)C (some centres unmarked) [Ex. 8, 6-O-(4-(2-acetoxyethoxy)aniline)acetyl fumagillol]",42
6,"CO[C@@H]1[C@H](OC(=O)CNc2ccc3c(c2)OCO3)CC[C@]2(CO2)[C@H]1[C@@]1(C)OC1CC=C(C)C (some centres unmarked) [Ex. 23, 6-O-(3,4-methylenedioxyaniline)acetyl fumagillol]",0.24
7,"CO[C@@H]1[C@H](OC(=O)CNc2ccc(OC(C)=O)cc2)CC[C@]2(CO2)[C@H]1[C@@]1(C)OC1CC=C(C)C (some centres unmarked) [Ex. 33, 6-O-(4-acetoxyaniline)acetyl fumagillol]",109
8,"CCCC(C)NCC(=O)O[C@@H]1CC[C@]2(CO2)[C@@H]([C@@]2(C)OC2CC=C(C)C)[C@@H]1OC (some centres unmarked) [Ex. 49, 6-O-(1-methyl-butylamino)acetyl fumagillol]",44
9,"CO[C@@H]1[C@H](OC(=O)CNC2CCCC2)CC[C@]2(CO2)[C@H]1[C@@]1(C)OC1CC=C(C)C (some centres unmarked) [Ex. 65, 6-O-(cyclopentylamino)acetyl fumagillol]",250
10,"CO[C@@H]1[C@H](OC(=O)CNC2CCC(C(C)(C)C)CC2)CC[C@]2(CO2)[C@H]1[C@@]1(C)OC1CC=C(C)C (some centres unmarked) [Ex. 67, 6-O-(4-tert-butyl-cyclohexylamino)acetyl fumagillol]",0.06
11,"CO[C@@H]1[C@H](OC(=O)CNc2ccc(O)cc2)CC[C@]2(CO2)[C@H]1[C@@]1(C)OC1CC=C(C)C (some centres unmarked) [Ex. 21, 6-O-(4-hydroxyaniline)acetyl fumagillol]",185
12,"CO[C@@H]1[C@H](OC(=O)CNC(C)C(C)(C)C)CC[C@]2(CO2)[C@H]1[C@@]1(C)OC1CC=C(C)C (some centres unmarked) [Ex. 53, 6-O-(1,2,2-trimethylpropylamino)acetyl fumagillol]",162
13,"COc1ccc(NCC(=O)O[C@@H]2CC[C@]3(CO3)[C@@H]([C@@]3(C)OC3CC=C(C)C)[C@@H]2OC)cc1 (some centres unmarked) [Ex. 1, 6-O-(4-methoxyaniline)acetyl fumagillol]",0.0071
14,"CO[C@@H]1C(OC(=O)CNC2CCC2)CC[C@](O)(CCl)[C@H]1C1(C)OC1CC=C(C)C (stereo in doubt) [Ex. 79, 4-((cyclobutylamino)acetyl)oxy-2-(1,2-epoxy-1,5-dimethyl-4-hexenyl)-3-methoxy-1-chloromethyl-1-cyclohexanol]",0.037
15,"COC(=O)C(C)NCC(=O)O[C@@H]1CC[C@]2(CO2)[C@@H]([C@@]2(C)OC2CC=C(C)C)[C@@H]1OC (some centres unmarked) [Ex. 74, 6-O-(alaninemethylesteramino)acetyl fumagillol]",800
16,"CO[C@@H]1[C@H](OC(=O)CNc2ccc(C#N)cc2)CC[C@]2(CO2)[C@H]1[C@@]1(C)OC1CC=C(C)C (some centres unmarked) [Ex. 34, 6-O-(4-cyanoaniline)acetyl fumagillol]",98
17,"CO[C@@H]1[C@H](OC(=O)CNc2ccc(N)cc2)CC[C@]2(CO2)[C@H]1[C@@]1(C)OC1CC=C(C)C (some centres unmarked) [Ex. 22, 6-O-(4-aminoaniline)acetyl fumagillol]",179
18,"COc1ccc(NCC(=O)O[C@@H]2CC[C@]3(CO3)[C@@H]([C@@]3(C)OC3CC=C(C)C)[C@@H]2OC)cc1C#N (some centres unmarked) [Ex. 9, 6-O-(3-cyano-4-methoxyaniline)acetyl fumagillol]",0.63
19,"COc1ccc(NCC(=O)O[C@@H]2CC[C@]3(CO3)[C@@H]([C@@]3(C)OC3CC=C(C)C)[C@@H]2OC)cc1CN(C)C (some centres unmarked) [Ex. 10, 6-O-(3-(dimethylaminomethyl)-4-methoxyaniline)acetyl fumagillol]",0.06

row,Structure (SMILES),IC50 [ng/mL]
1,"CO[C@@H]1[C@H](OC(=O)CNc2ccc(Cl)cc2)CC[C@]2(CO2)[C@H]1[C@@]1(C)O[C@@H]1CC=C(C)C [Ex. 19, 6-O-(4-chloroaniline)acetyl fumagillol]",174
2,"CO[C@@H]1[C@H](OC(=O)CNc2ccc(OCCO)cc2)CC[C@]2(CO2)[C@H]1[C@@]1(C)OC1CC=C(C)C (some centres unmarked) [Ex. 35, 6-O-(4-hydroxyethoxyaniline)acetyl fumagillol]",116
3,"CNCCOc1ccc(NCC(=O)O[C@@H]2CC[C@]3(CO3)[C@@H]([C@@]3(C)OC3CC=C(C)C)[C@@H]2OC)cc1 (some centres unmarked) [Ex. 30, 6-O-(4-ethylaminoethoxyaniline)acetyl fumagillol]",0.09
4,"CO[C@@H]1[C@H](OC(=O)CNC#CCl)CC[C@]2(CO2)[C@H]1[C@@]1(C)OC1CC=C(C)C (some centres unmarked) [Ex. 62, 6-O-(chloroethynylamino)acetyl fumagillol]",340
5,"CCCOc1ccc(NCC(=O)O[C@@H]2CC[C@]3(CO3)[C@@H]([C@@]3(C)OC3CC=C(C)C)[C@@H]2OC)cc1 (some centres unmarked) [Ex. 17, 6-O-(4-propyloxyaniline)acetyl fumagillol]",0.61
6,"CO[C@@H]1[C@H](OC(=O)CNC(C)C)CC[C@]2(CO2)[C@H]1[C@@]1(C)OC1CC=C(C)C (some centres unmarked) [Ex. 42, 6-O-(isopropylamino)acetyl fumagillol]",12
7,"COc1ccc(NCC(=O)O[C@@H]2CC[C@]3(CO3)[C@@H]([C@@]3(C)OC3CC=C(C)C)[C@@H]2OC)c(OC)c1 (some centres unmarked) [Ex. 3, 6-O-(2,4-dimethoxyaniline)acetyl fumagillol]",0.09
8,"CO[C@@H]1[C@H](OC(=O)CNC2CC2)CC[C@]2(CO2)[C@H]1[C@@]1(C)OC1CC=C(C)C (some centres unmarked) [Ex. 63, 6-O-(cyclopropylamino)acetyl fumagillol]",0.008
9,"CCNCC(=O)O[C@@H]1CC[C@]2(CO2)[C@@H]([C@@]2(C)OC2CC=C(C)C)[C@@H]1OC (some centres unmarked) [Ex. 41, 6-O-(ethylamino)acetyl fumagillol]",20
10,"CCC(C)CNCC(=O)O[C@@H]1CC[C@]2(CO2)[C@@H]([C@@]2(C)OC2CC=C(C)C)[C@@H]1OC (some centres unmarked) [Ex. 46, 6-O-(2-methyl-butylamino)acetyl fumagillol]",2600
11,"CCC(CC)NCC(=O)O[C@@H]1CC[C@]2(CO2)[C@@H]([C@@]2(C)OC2CC=C(C)C)[C@@H]1OC (some centres unmarked) [Ex. 50, 6-O-(1-ethyl-propylamino)acetyl fumagillol]",24
12,"CO[C@@H]1[C@H](OC(=O)CNC2CCCCC2)CC[C@]2(CO2)[C@H]1[C@@]1(C)OC1CC=C(C)C (some centres unmarked) [Ex. 66, 6-O-(cyclohexylamino)acetyl fumagillol]",0.6
13,"CC/C=C(C)/C=C/CNCC(=O)O[C@@H]1CC[C@]2(CO2)[C@@H]([C@@]2(C)OC2CC=C(C)C)[C@@H]1OC (some centres unmarked) [Ex. 57, 6-O-(4-methyl-hepta-2,4-dienylamino)acetyl fumagillol]",420
14,"CO[C@@H]1[C@H](OC(=O)CNC(C)(C)CC(C)=O)CC[C@]2(CO2)[C@H]1[C@@]1(C)OC1CC=C(C)C (some centres unmarked) [Ex. 72, 6-O-(1,1-dimethyl-3-oxobutylamino)acetyl fumagillol]",330
15,"COc1ccc(NCC(=O)O[C@@H]2CC[C@]3(CO3)[C@@H]([C@@]3(C)OC3CC=C(C)C)[C@@H]2OC)cc1OC(C)C (some centres unmarked) [Ex. 12, 6-O-(3-isopropoxy-4-methoxyaniline)acetyl fumagillol]",0.07
16,"CO[C@@H]1[C@H](OC(=O)CNCC(C)N(C)C)CC[C@]2(CO2)[C@H]1[C@@]1(C)OC1CC=C(C)C (some centres unmarked) [Ex. 69, 6-O-(2-dimethylamino-propylamino)acetyl fumagillol]",260
17,CO[C@@H]1[C@H](OC(=O)CNc2ccc(OCC(C)C)cc2)CC[C@]2(CO2)[C@H]1[C@@]1(C)OC1CC=C(C)C (some centres unmarked) [Ex. 11],0.08
18,"CO[C@@H]1[C@H](OC(=O)CNC(C)CN(C)C)CC[C@]2(CO2)[C@H]1[C@@]1(C)OC1CC=C(C)C (some centres unmarked) [Ex. 68, 6-O-(2-dimethylamino-1-methylethylamino)acetyl fumagillol]",240

# Same assay, conditions: Homo sapiens; HUVEC growth, cultured 2–3 days with compound, absorption at 490 nm; read-out: IC50
row,Structure (SMILES),IC50 [ng/mL]
1,"C=C(C)CNCC(=O)O[C@@H]1CC[C@]2(CO2)[C@@H]([C@@]2(C)OC2CC=C(C)C)[C@@H]1OC (some centres unmarked) [Ex. 56, 6-O-(2-methyl-allylamino)acetyl fumagillol]",28
2,"CO[C@@H]1[C@H](OC(=O)CNc2ccccc2)CC[C@]2(CO2)[C@H]1[C@@]1(C)OC1CC=C(C)C (some centres unmarked) [Ex. 18, 6-O-(aniline)acetyl fumagillol]",17

# Same assay, conditions: relative to TNP-470
row,Structure (SMILES),"inhibitory effect on HUVEC, times greater than TNP-470 [times]"
1,"COc1ccc(NCC(=O)O[C@@H]2CC[C@]3(CO3)[C@@H]([C@@]3(C)OC3CC=C(C)C)[C@@H]2OC)cc1 (some centres unmarked) [Ex. 1, 6-O-(4-methoxyaniline)acetyl fumagillol]",2000

# Source: US7087768B2, “Fumagillol derivatives and preparing method thereof” (Equispharm Co., Ltd., priority 2001, dated 2006)
